According to ChEMBL document CHEMBL5321222, “N(14)-substituted evodiamine derivatives as dual topoisomerase 1/tubulin-Inhibiting anti-gastrointestinal tumor agents” (Eur J Med Chem, 2023):
Calls of active or inactive are those of the source. The rule behind the calls is not given here.

How the values were obtained:
MGC-803 [1] = assay: Antiproliferative activity against human MGC-803 cells assessed as reduction in cell viability incubated for 72 hrs by MTT assay; type: functional, cell-based; conditions: MGC-803, 72 h
SGC-7901 = assay: Antiproliferative activity against human SGC-7901 cells assessed as reduction in cell viability incubated for 72 hrs by MTT assay; type: functional, cell-based; conditions: SGC-7901, 72 h
SW480 = assay: Antiproliferative activity against human SW480 cells assessed as reduction in cell viability incubated for 72 hrs by MTT assay; type: functional, cell-based; conditions: SW480, 72 h
LoVo = assay: Antiproliferative activity against human LoVo cells assessed as reduction in cell viability incubated for 72 hrs by MTT assay; type: functional, cell-based
GES1 = assay: Antiproliferative activity against human GES1 cells assessed as reduction in cell viability incubated for 72 hrs by MTT assay; type: functional, cell-based; conditions: GES1, 72 h
RKO [2] = assay: Antiproliferative activity against human RKO cells assessed as reduction in cell viability incubated for 72 hrs by MTT assay; type: functional, cell-based
HGC-27 = assay: Antiproliferative activity against human HGC-27 cells assessed as reduction in cell viability incubated for 72 hrs by MTT assay; type: functional, cell-based; conditions: HGC-27, 72 h
[3] = target: T1, DNA topoisomerase 1 (Homo sapiens) (UniProt P11387); assay: Inhibition of topoisomerase 1 (unknown origin) at 200 uM using PBR322 DNA as substrate incubated for 30 mins by agarose gel electrophoresis
T1 sequence (whole entry): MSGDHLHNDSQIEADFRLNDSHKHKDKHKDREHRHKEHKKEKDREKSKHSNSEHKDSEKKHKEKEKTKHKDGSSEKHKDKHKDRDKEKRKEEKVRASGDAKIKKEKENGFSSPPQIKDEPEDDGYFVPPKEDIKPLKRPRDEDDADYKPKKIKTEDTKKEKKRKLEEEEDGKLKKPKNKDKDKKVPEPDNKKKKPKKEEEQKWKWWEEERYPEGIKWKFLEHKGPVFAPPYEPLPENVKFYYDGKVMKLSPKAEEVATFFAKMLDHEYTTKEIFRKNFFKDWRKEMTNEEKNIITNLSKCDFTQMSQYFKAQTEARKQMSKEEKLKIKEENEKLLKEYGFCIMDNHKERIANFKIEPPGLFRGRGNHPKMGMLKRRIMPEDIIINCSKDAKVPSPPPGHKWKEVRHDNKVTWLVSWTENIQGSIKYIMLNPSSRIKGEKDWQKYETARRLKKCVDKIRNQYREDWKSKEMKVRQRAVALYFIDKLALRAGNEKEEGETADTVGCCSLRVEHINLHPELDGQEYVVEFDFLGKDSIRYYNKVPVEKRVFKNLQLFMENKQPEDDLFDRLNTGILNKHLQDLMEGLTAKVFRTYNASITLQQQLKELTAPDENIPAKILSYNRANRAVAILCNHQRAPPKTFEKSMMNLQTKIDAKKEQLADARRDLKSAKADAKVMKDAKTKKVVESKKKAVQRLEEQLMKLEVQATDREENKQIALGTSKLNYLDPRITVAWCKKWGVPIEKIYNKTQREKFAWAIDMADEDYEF

RKO [4] = assay: Inhibition of cell migration in human RKO cells assessed as reduction in tumor wound healing incubated for 24 hrs by microscopic analysis; type: functional, cell-based; conditions: dose 10-90 nM
MGC-803 [5] = assay: Induction of apoptosis in human MGC-803 cells assessed as late apoptotic cells at 0.2 uM incubated for 24 hrs by propidium iodide and Annexin V/FITC staining based flow cytometry assay (reference value: 4.10%); type: functional
MGC-803 [6] = assay: Induction of cell cycle arrest in human MGC-803 cells assessed as accumulation of cells at G2/M phase at 0.2 uM incubated for 24 hrs by propidium iodide staining based flow cytometry analysis; type: functional
MGC-803 [7] = assay: Induction of apoptosis in human MGC-803 cells assessed as early apoptotic cells at 0.2 uM incubated for 24 hrs by propidium iodide and Annexin V/FITC staining based flow cytometry assay (reference value: 1.85%); type: functional
MGC-803 [8] = assay: Inhibition of cell […] in human MGC-803 cells at 50 nM incubated for 24 hrs by scratch wound healing assay; type: functional, cell-based
RKO [9] = assay: Induction of morphological changes in human RKO cells at 0.2 uM incubated for 24 hrs by Giemsa staining based micrscopic analysis; type: functional, cell-based
MGC-803 [10] = assay: Induction of morphological changes in human MGC-803 cells at 0.2 uM incubated for 24 hrs by Giemsa staining based micrscopic analysis; type: functional, cell-based
RKO [11] = assay: Induction of cell cycle arrest in human RKO cells assessed as accumulation of cells at G2/M phase at 0.2 uM incubated for 24 hrs by propidium iodide staining based flow cytometry analysis; type: functional
RKO [12] = assay: Induction of apoptosis in human RKO cells assessed as early apoptotic cells at 0.2 uM incubated for 24 hrs by propidium iodide and Annexin V/FITC staining based flow cytometry assay (reference value: 0.16%); type: functional
RKO [13] = assay: Induction of cell cycle arrest in human RKO cells assessed as accumulation of cells at S phase at 0.2 uM incubated for 24 hrs by propidium iodide staining based flow cytometry analysis; type: functional
RKO [14] = assay: Induction of apoptosis in human RKO cells assessed as late apoptotic cells at 0.2 uM incubated for 24 hrs by propidium iodide and Annexin V/FITC staining based flow cytometry assay (reference value: 0.50%); type: functional
RKO [15] = assay: Induction of cell cycle arrest in human RKO cells at 0.2 uM incubated for 24 hrs by propidium iodide staining based flow cytometry analysis; type: functional
MGC-803 [16] = assay: Induction of cell cycle arrest in human MGC-803 cells at 0.2 uM incubated for 24 hrs by propidium iodide staining based flow cytometry analysis; type: functional

Row | Structure (SMILES) | IC50 (MGC-803 [1]) [nM] | IC50 (SGC-7901) [nM] | IC50 (SW480) [nM] | IC50 (LoVo) [nM] | inhibition [3] | IC50 (GES1) [nM] | IC50 (RKO [2]) [nM] | IC50 (HGC-27) [nM] | further results
1 | O=C1c2ccccc2N(CCBr)C2c3[nH]c4ccccc4c3CCN12 (configuration not stated) | 550 | 1060 | 970 | 1340 | – | 1340 | 980 | 2050 | –
2 | C/C=C/C(=O)N1c2ccccc2C(=O)N2CCc3c([nH]c4ccccc34)C21 (configuration not stated) | 10300 | 9590 | 6990 | > 30000 | – | 13600 | 10200 | 4370 | –
3 | C=C(CN1c2ccccc2C(=O)N2CCc3c([nH]c4ccccc34)C21)C(=O)OC (configuration not stated) | 19700 | > 30000 | > 30000 | > 30000 | – | > 30000 | > 30000 | > 30000 | –
4 | CN1c2ccccc2C(=O)N2CCc3c([nH]c4ccccc34)C21 (racemic) | 8520 | 17700 | > 30000 | 24200 | Active | > 30000 | 29600 | > 30000 | inhibition (RKO [4]): inactive; Activity (RKO [15]): inactive; Activity (MGC-803 [5]): 5.24%; Activity (MGC-803 [7]): 3.15%; inhibition (MGC-803 [8]): inactive; Activity (RKO [9]): inactive; Activity (MGC-803 [16]): inactive; Activity (MGC-803 [10]): inactive; Activity (RKO [12]): 4.63%; Activity (RKO [14]): 7.71%
5 | COc1ccc(CCN2c3ccccc3C(=O)N3CCc4c([nH]c5ccccc45)C32)cc1OC (configuration not stated) | > 30000 | > 30000 | > 30000 | > 30000 | – | > 30000 | > 30000 | > 30000 | –

The next lines start with results.

Row | IC50 (MGC-803 [1]) [nM] | IC50 (SGC-7901) [nM] | IC50 (SW480) [nM] | IC50 (LoVo) [nM] | inhibition [3] | Structure (SMILES) | IC50 (GES1) [nM] | IC50 (RKO [2]) [nM] | IC50 (HGC-27) [nM] | further results
6 | 160 | 460 | 1030 | 1990 | – | CCCCN1c2ccccc2C(=O)N2CCc3c([nH]c4ccccc34)C21 (configuration not stated) | 500 | 450 | 1700 | –
7 | 170 | 430 | 980 | 1200 | Active | CCN1c2ccccc2C(=O)N2CCc3c([nH]c4ccccc34)C21 (configuration not stated) | 300 | 410 | 2150 | –
8 | 60 | 270 | 380 | 1000 | Active | C=CCN1c2ccccc2C(=O)N2CCc3c([nH]c4ccccc34)C21 (configuration not stated) | – | 380 | 1050 | –
9 | 750 | 1220 | 4410 | > 30000 | – | CCCCCN1c2ccccc2C(=O)N2CCc3c([nH]c4ccccc34)C21 (configuration not stated) | 2820 | 1870 | 7740 | –
10 | 420 | 690 | 90 | 120 | Active | CC[C@@]1(O)C(=O)OCc2c1cc1n(c2=O)Cc2cc3c(CN(C)C)c(O)ccc3nc2-1 [TOPOTECAN] | 1060 | 420 | 490 | inhibition (RKO [4]): inactive; Activity (MGC-803 [5]): 3.67%; Activity (MGC-803 [6]): 82.29%; Activity (MGC-803 [7]): 5.11%; inhibition (MGC-803 [8]): inactive; Activity (RKO [9]): inactive; Activity (MGC-803 [10]): inactive; Activity (RKO [11]): 31.92%; Activity (RKO [12]): 14.2%; Activity (RKO [13]): 67.69%; Activity (RKO [14]): 19.28%
11 | 160 | 350 | 2200 | 500 | Active | CC(C)CN1c2ccccc2C(=O)N2CCc3c([nH]c4ccccc34)C21 (configuration not stated) | 1080 | 880 | 1950 | –
